Experimental data reported in patent US20240300934A1, “COMPOUNDS FOR MODULATING MYCOBACTERIUM TUBERCULOSIS RESPONSE” (priority 2021, published 2024).

Columns and labels:
human CYP 450 3A4/5 = experiment: Human cytochrome P450 inhibition, 3A4/5; format: in vitro ADME; conditions: 10 μM
Mouse plasma stability = format: in vitro ADME; conditions: after 5 h incubation
Experimental: Assays examining mouse and human liver microsomal stability, kinetic aqueous solubility, mouse and human plasma protein binding and stability, and human cytochrome P450 inhibition characteristics of the compounds were run by BioDuro, Incorporated, using standard protocols as previously described (Wang et al, 2020). hERG inhibition assays were also performed by BioDuro, Incorporated.

Mtb-infected J774 cells = conditions: 10 μM for 24 h; 5 days post-infection
[1] = Mouse pharmacokinetics, single oral dose; format: in vivo, CD-1 mice
Experimental: Blood samples were collected in K2EDTA coated tubes pre-dose, 0.5, 1, 3 and 5 hrs post-dose, placed on ice, and centrifuged to recover plasma. The recovered plasma was kept at −80° C. as needed prior to analysis, which was performed as previously described (Wang et al, 2020). In brief, a Sciex Applied Biosystems Qtrap 4000 triple-quadrupole mass spectrometer coupled to an Agilent 1260 HPLC system was used for HPLC coupled to tandem mass spectrometry (LC-MS/MS) quantitative analysis of the samples, with chromatography attained using an Agilent Zorbax SB-C8 column (2.1×30 mm; particle size, 3.5 μm) and a reverse phase gradient elution. The aqueous mobile phase consisted of Milli-Q deionized water with 0.1% formic acid (A), while the organic mobile phase was 0.1% formic acid in acetonitrile (B). The gradient set-up was as follows: 5-90% B over 2 mins, 1 min at 90% B, then an immediate drop to 5% B and an additional 1 min at 5% B. Quantification of molecules was carried out via multiple-reaction monitoring of parent/daughter transitions in electrospray positive-ionization mode, and sample analyses accepted if quality control and standard samples had concentrations within 20% of the nominal concentration. Preparation of compounds for generation of standard curves and quality control spiking solutions were performed as previously described (Wang et al, 2020). Data were processed using Analyst software (Version 1.6.2; Applied Biosystems Sciex).

CCSc1ncc(CN2CCN(c3nc4ccccc4o3)CC2)cn1 [Compound C6, 2-(4-((2-(ethylthio)pyrimidin-5-yl)methyl)piperazin-1-yl)benzo[d]oxazole]
% inhibition of CYP 3A4/5 (human CYP 450 3A4/5): < 1% | stability in mouse plasma, % remaining (Mouse plasma stability): > 99.9% | accumulation in Mtb-infected J774 cells (Mtb-infected J774 cells): trend of greater C6 accumulation in the Mtb-infected J774 cells than uninfected J774 cells | Kp at 5 h ([1]; female, CD-1, mouse, single 25 mg/kg po dose, 5 h, lung vs plasma, read-out: Mouse PK Clung/Cplasma at t = 5 h): 0.88 | AUC0-5 h ([1]; single 5 mg/kg oral (po) dose, plasma, CD-1 mice (n=2)): 5481 ng·h/mL | Mouse PK AUC0-5h ([1]; single 25 mg/kg po dose, plasma, CD-1 mice): 25713 ng·h/mL
